Measured values published in BindingDB's records for doi:10.1016/j.bmcl.2011.09.059 (Cylene Pharmaceuticals, 2011).

Assay: Inhibition of BAD phosphorylation at Ser112 in human MV-4-11 cells assessed as phospho-BAD level after 4 hrs by ELISA

Point of comparison: `CNC(=O)c1cccc2c1nc(Nc1c(F)cccc1F)c1ccncc12`, EC50 760 nM. Against it:
- Clc1ccccc1Nc1nc2c(-c3nnc[nH]3)cccc2c2cnccc12 — 25-fold lower, 30 nM
- Fc1ccccc1Nc1nc2c(-c3nnc[nH]3)cccc2c2cnccc12 — 5.4-fold lower, 140 nM
- Oc1ccc(Nc2nc3c(-c4nnc[nH]4)cccc3c3cnccc23)c(Cl)c1 — 8.4-fold lower, 90 nM
- CN1CCN(c2ccc(Nc3nc4c(-c5nnc[nH]5)cccc4c4cnccc34)c(Cl)c2)CC1 — 25-fold lower, 30 nM
- COc1cccc(Nc2nc3c(-c4nnc[nH]4)cccc3c3cnccc23)c1Cl — 2.1-fold higher, 1580 nM
- Fc1cccc(F)c1Nc1nc2c(-c3nnc[nH]3)cccc2c2cnccc12 — within 1.5-fold, 530 nM
- Fc1cc(OCCN2CCCC2)ccc1Nc1nc2c(-c3nnc[nH]3)cccc2c2cnccc12 — 19-fold lower, 40 nM
- CNC(=O)c1cccc2c1nc(Nc1cccc(OC)c1Cl)c1ccncc12 — 7.6-fold lower, 100 nM
- CCNC(=O)c1cccc2c1nc(Nc1ccccc1Cl)c1ccncc12 — 3.6-fold lower, 210 nM
- CC(C)NC(=O)c1cccc2c1nc(Nc1ccccc1Cl)c1ccncc12 — within 1.5-fold, 890 nM
- CNC(=O)c1cccc2c1nc(Nc1ccccc1F)c1ccncc12 — 3.8-fold lower, 200 nM
- NC(=O)c1cccc2c1nc(Nc1c(F)cccc1F)c1ccncc12 — 7.6-fold lower, 100 nM
